Experimental data reported in EP4603105A1, “PHARMACEUTICAL COMPOSITION CONTAINING CYCLIC COMPOUND HAVING SELECTIVE KRAS INHIBITORY EFFECT AGAINST HRAS AND NRAS” (CHUGAI SEIYAKU KABUSHIKI KAISHA, priority 2022, dated 2024).

Experiments:
[1] = system: human lung cancer strain NCI-H441; assay type: cell-based
Method in brief: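 Proliferation was scored by […] measured after the reagent was added to cultures kept at 37°C in 5% carbon dioxide.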

[2] = target: GDP-bound NRAS wild-type protein (Homo sapiens, UniProt P01111); test: Binding to NRAS by surface plasmon resonance (SPR), KD and KD ratio to KRAS; details: ratio of KD for GDP-bound NRAS wild-type protein to KD for KRAS
Method in brief: (§1)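 SPR, 30°C: Avi-biotin RAS·GDP captured via Biotin CAPture (~100–300 RU); running buffer HBS pH 7.4, 1 mM DTT, 10 mM MgCl2, 0.01% Tween 20, 10 µM GDP, 4% DMSO. Single-cycle kinetics, 100 µL/min, 75 s injections; 1:1 model → KD.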

HRAS wild-type protein = HRAS wild-type protein (Homo sapiens, UniProt P01112); test: Binding to HRAS by surface plasmon resonance (SPR), KD and KD ratio to KRAS; details: ratio of KD for HRAS wild-type protein to KD for KRAS
Method in brief: as §1

Chain of HRAS wild-type protein (P01112 whole entry): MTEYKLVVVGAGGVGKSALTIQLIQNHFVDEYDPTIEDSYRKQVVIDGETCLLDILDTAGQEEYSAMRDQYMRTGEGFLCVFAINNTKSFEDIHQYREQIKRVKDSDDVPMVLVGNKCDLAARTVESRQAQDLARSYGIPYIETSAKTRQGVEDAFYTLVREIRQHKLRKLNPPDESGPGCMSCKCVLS
Chain of GDP-bound NRAS wild-type protein (P01111 whole entry): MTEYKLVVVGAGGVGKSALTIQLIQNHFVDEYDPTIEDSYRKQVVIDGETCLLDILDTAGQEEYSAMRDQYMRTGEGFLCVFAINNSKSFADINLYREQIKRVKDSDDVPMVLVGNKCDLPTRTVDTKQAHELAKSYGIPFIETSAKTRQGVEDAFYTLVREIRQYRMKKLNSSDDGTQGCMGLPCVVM

SMILES	IC50 [1]	NRAS /KRAS [2]	HRAS /KRAS (HRAS wild-type protein)
CCC[C@H]1C(=O)N[C@@H]([C@@H](C)CC)C(=O)N(C)CC(=O)N(C)[C@H]2C/C=C\CCN(C2=O)[C@@H](Cc2ccc(C)cc2)C(=O)N(C)CC(=O)N[C@@H](CCc2ccc3c(C)cn(C)c3c2)C(=O)N2C[C@H](OCC)C[C@H]2C(=O)NC2(CC(C)(C)C2)C(=O)N(C)[C@@H](C2CCCC2)C(=O)N(C)[C@H](C(=O)N(C)C)CC(=O)N1C [PP2899]	18.8 nM	A (a compound having 10 or more and less than 20 is denoted as A)	B (a compound having 3 or more and less than 10 is denoted as B)
CCC[C@H]1C(=O)N[C@@H]([C@@H](C)CC)C(=O)N(C)CC(=O)N(C)[C@H]2C/C=C\CCN(C2=O)[C@@H](Cc2ccc(C(F)(F)F)cc2)C(=O)N(C)CC(=O)N[C@@H](CCc2ccc3sc(C)c(C)c3c2)C(=O)N2C[C@H](OCC)C[C@H]2C(=O)NC2(CC(C)(C)C2)C(=O)N(C)[C@@H](C(CC)CC)C(=O)N(C)[C@H](C(=O)N(C)C)CC(=O)N1C [PP2900]	14.5 nM	AA (a compound having 20 or more is denoted as AA)	A (a compound having 10 or more and less than 20 is denoted as A)
CCC[C@H]1C(=O)N[C@@H]([C@@H](C)CC)C(=O)N(C)CC(=O)N(C)[C@H]2C/C=C\CCN(C2=O)[C@@H](Cc2ccc(C(F)(F)F)cc2)C(=O)N(C)CC(=O)N[C@@H](CCc2ccc3ccn(C)c3c2)C(=O)N2C[C@H](OCC)C[C@H]2C(=O)NC2(CC(C)(C)C2)C(=O)N(C)[C@@H](C2CCCC2)C(=O)N(C)[C@H](C(=O)N(C)C)CC(=O)N1C [PP2901]	86.5 nM	A (a compound having 10 or more and less than 20 is denoted as A)	A (a compound having 10 or more and less than 20 is denoted as A)
CCC[C@H]1C(=O)N[C@@H]([C@@H](C)CC)C(=O)N(C)CC(=O)N(C)[C@H]2C/C=C\CCN(C2=O)[C@@H](Cc2ccc(C)cc2)C(=O)N(C)CC(=O)N[C@@H](CCc2ccc3sc(C)c(C)c3c2)C(=O)N2C[C@H](OCC)C[C@H]2C(=O)NC2(CC(C)(C)C2)C(=O)N(C)[C@@H](C(CC)CC)C(=O)N(C)[C@H](C(=O)N(C)C)CC(=O)N1C [PP2902]	56.3 nM	AA (a compound having 20 or more is denoted as AA)	A (a compound having 10 or more and less than 20 is denoted as A)
C#CC[C@H]1C(=O)N[C@@H]([C@@H](C)CC)C(=O)N(C)CC(=O)N(C)[C@H]2C/C=C\CCN(C2=O)[C@@H](Cc2ccc(C(F)(F)F)cc2)C(=O)N(C)CC(=O)N[C@@H](CCc2ccc(C(F)(F)F)c(OC)c2)C(=O)N2CCOC[C@H]2C(=O)NC2(CC(C)(C)C2)C(=O)N(C)[C@@H](C2CCCC2)C(=O)N(C)[C@H](C(=O)N(C)C)CC(=O)N1C [PP2905]	35.2 nM	AA (a compound having 20 or more is denoted as AA)	A (a compound having 10 or more and less than 20 is denoted as A)
CC[C@H](C)[C@@H]1NC(=O)[C@H](COC)N(C)C(=O)C[C@@H](C(=O)N(C)C)N(C)C(=O)[C@H](C2CCCC2)N(C)C(=O)C2(CC(C)(C)C2)NC(=O)[C@@H]2CCCCN2C(=O)[C@H](CCc2cc(F)c(C(F)(F)F)c(F)c2)NC(=O)CN(C)C(=O)[C@H](Cc2ccc(C(F)(F)F)cc2)N2CC/C=C\C[C@@H](C2=O)N(C)C(=O)CN(C)C1=O [PP2907]	46.3 nM	AA (a compound having 20 or more is denoted as AA)	A (a compound having 10 or more and less than 20 is denoted as A)
CCC[C@H]1C(=O)N[C@@H]([C@@H](C)CC)C(=O)N(C)CC(=O)N(C)[C@H]2C/C=C\CCN(C2=O)[C@@H](Cc2ccc(C(F)(F)F)cc2)C(=O)N(C)CC(=O)N[C@@H](CCc2ccc3c(C)cn(C)c3c2)C(=O)N2C[C@H](OCC)C[C@H]2C(=O)NC2(CC(C)(C)C2)C(=O)N(C)[C@@H](C(CC)CC)C(=O)N(C)[C@H](C(=O)N(C)C)CC(=O)N1C [PP2908]	20.2 nM	AA (a compound having 20 or more is denoted as AA)	A (a compound having 10 or more and less than 20 is denoted as A)
C#CC[C@H]1C(=O)N[C@@H]([C@@H](C)CC)C(=O)N(C)CC(=O)N(C)[C@H]2C/C=C\CCN(C2=O)[C@@H](Cc2ccc(C(F)(F)F)cc2)C(=O)N(C)CC(=O)N[C@@H](CCc2ccc(C(F)(F)F)c(OC)c2)C(=O)N2CC[C@H]2C(=O)NC2(CC(C)(C)C2)C(=O)N(C)[C@@H](C2CCCC2)C(=O)N(C)[C@H](C(=O)N(C)C)CC(=O)N1C [PP2909]	61.3 nM	B (a compound having 3 or more and less than 10 is denoted as B)	B (a compound having 3 or more and less than 10 is denoted as B)
C#CC[C@H]1C(=O)N[C@@H]([C@@H](C)CC)C(=O)N(C)CC(=O)N(C)[C@H]2C/C=C\CCN(C2=O)[C@@H](Cc2ccc(C(F)(F)F)cc2)C(=O)N(C)CC(=O)N[C@@H](CCc2ccc(C(F)(F)F)c(OC)c2)C(=O)N2CC[C@H]2C(=O)NC2(CCC2)C(=O)N(C)[C@@H](C2CCCC2)C(=O)N(C)[C@H](C(=O)N(C)C)CC(=O)N1C [PP2911]	64.8 nM	A (a compound having 10 or more and less than 20 is denoted as A)	B (a compound having 3 or more and less than 10 is denoted as B)
CCC[C@H]1C(=O)N[C@@H]([C@@H](C)CC)C(=O)N(C)CC(=O)N(C)[C@H]2C/C=C\CCN(C2=O)[C@@H](Cc2ccc(C(F)(F)F)cc2)C(=O)N(C)CC(=O)N[C@@H](CCc2ccc3ccn(C)c3c2)C(=O)N2C[C@H](OCC)C[C@H]2C(=O)NC2(CC(C)(C)C2)C(=O)N(C)[C@@H](C(CC)CC)C(=O)N(C)[C@H](C(=O)N(C)C)CC(=O)N1C [PP2912]	86 nM	AA (a compound having 20 or more is denoted as AA)	A (a compound having 10 or more and less than 20 is denoted as A)
CCCN(C)C(=O)[C@@H]1CC(=O)N(C)[C@@H](CC)C(=O)N[C@@H]([C@@H](C)CC)C(=O)N(C)CC(=O)N(C)[C@H]2C/C=C\CCN(C2=O)[C@@H](Cc2ccc(C(F)(F)F)cc2)C(=O)N(C)CC(=O)N[C@@H](CCc2cc(F)c(C(F)(F)F)c(F)c2)C(=O)N2C[C@H](OCC3CC3)C[C@H]2C(=O)NC2(CCC2)C(=O)N(C)[C@@H](C2CCCC2)C(=O)N1C [PP2913]	10.3 nM	A (a compound having 10 or more and less than 20 is denoted as A)	A (a compound having 10 or more and less than 20 is denoted as A)
CCCN(C)C(=O)[C@@H]1CC(=O)N(C)[C@@H](CC)C(=O)N[C@@H]([C@@H](C)CC)C(=O)N(C)CC(=O)N(C)[C@H]2C/C=C\CCN(C2=O)[C@@H](Cc2ccc(C(F)(F)F)cc2)C(=O)N(C)CC(=O)N[C@@H](CCc2cc(F)c(C(F)(F)F)c(F)c2)C(=O)N2CC[C@H]2C(=O)NC2(CCC2)C(=O)N(C)[C@@H](C2CCCC2)C(=O)N1C [PP2915]	129 nM	A (a compound having 10 or more and less than 20 is denoted as A)	A (a compound having 10 or more and less than 20 is denoted as A)
CCC(CC)[C@H]1C(=O)N(C)[C@H](C(=O)N(C)C)CC(=O)N(C)[C@@H](COC)C(=O)N[C@@H]([C@@H](C)CC)C(=O)N(C)CC(=O)N(C)[C@H]2C/C=C\CCN(C2=O)[C@@H](Cc2ccc(C(F)(F)F)cc2)C(=O)N(C)CC(=O)N[C@@H](CCc2cc(F)c(C(F)(F)F)c(F)c2)C(=O)N2CCCC[C@H]2C(=O)NC2(CC(C)(C)C2)C(=O)N1C [PP2916]	106 nM	A (a compound having 10 or more and less than 20 is denoted as A)	A (a compound having 10 or more and less than 20 is denoted as A)
CCC(CC)[C@H]1C(=O)N(C)[C@H](C(=O)N(C)C)CC(=O)N(C)[C@@H](COC)C(=O)N[C@@H]([C@@H](C)CC)C(=O)N(C)CC(=O)N(C)[C@H]2C/C=C\CCN(C2=O)[C@@H](Cc2ccc(C(F)(F)F)cc2)C(=O)N(C)CC(=O)N[C@@H](CCc2cc(F)c(C(F)(F)F)c(F)c2)C(=O)N2CCOC[C@H]2C(=O)NC2(CC(C)(C)C2)C(=O)N1C [PP2917]	130 nM	AA (a compound having 20 or more is denoted as AA)	A (a compound having 10 or more and less than 20 is denoted as A)
CCC(CC)[C@H]1C(=O)N(C)[C@H](C(=O)N(C)C)CC(=O)N(C)[C@@H](COC)C(=O)N[C@@H]([C@@H](C)CC)C(=O)N(C)CC(=O)N(C)[C@H]2C/C=C\CCN(C2=O)[C@@H](Cc2ccc(C(F)(F)F)cc2)C(=O)N(C)CC(=O)N[C@@H](CCc2cc(F)c(C(F)(F)F)c(F)c2)C(=O)N2CC[C@H]2C(=O)NC2(CC(C)(C)C2)C(=O)N1C [PP2918]	126 nM	AA (a compound having 20 or more is denoted as AA)	A (a compound having 10 or more and less than 20 is denoted as A)
CCC[C@H]1C(=O)N[C@@H]([C@@H](C)CC)C(=O)N(C)CC(=O)N(C)[C@H]2C/C=C\CCN(C2=O)[C@@H](Cc2ccc(C(F)(F)F)cc2)C(=O)N(C)CC(=O)N[C@@H](CCc2ccc(Cl)c(Cl)c2)C(=O)N2CCOC[C@H]2C(=O)NC2(CC(C)(C)C2)C(=O)N(C)[C@@H](C(CC)CC)C(=O)N(C)[C@H](C(=O)N(C)C)CC(=O)N1C [PP2920]	118 nM	AA (a compound having 20 or more is denoted as AA)	A (a compound having 10 or more and less than 20 is denoted as A)
CCC[C@H]1C(=O)N[C@@H]([C@@H](C)CC)C(=O)N(C)CC(=O)N(C)[C@H]2C/C=C\CCN(C2=O)[C@@H](Cc2ccc(C(F)(F)F)cc2)C(=O)N(C)CC(=O)N[C@@H](CCc2ccc(Cl)c(Cl)c2)C(=O)N2CC[C@H]2C(=O)NC2(CC(C)(C)C2)C(=O)N(C)[C@@H](C(CC)CC)C(=O)N(C)[C@H](C(=O)N(C)C)CC(=O)N1C [PP2921]	160 nM	AA (a compound having 20 or more is denoted as AA)	A (a compound having 10 or more and less than 20 is denoted as A)
